This is an account of results in patent US4866206A, “2-Halomethyl derivatives of 2-amino acids” (Merrell Dow France et Cie, priority 1988, dated 1989).

Structures are written as SMILES.

The target of assay [1] is T1, E. coli ODC (Escherichia coli, UniProt P21169). Format: cell-based.
For assay [2], the target named is T1, E. coli ODC. Briefly: time-dependent inhibition of bacterial ODC (in vitro), E. coli. Set-up: supernatant (approximately 16 mg protein/ml), used for the measurement of ornithine decarboxylase; endogenous in cells; host or cells: Escherichia coli M.R.C; 59, supernatant of sonicated cells. Format: biochemical, Escherichia coli (M.R.C. 59). How it is done:
(§1) 2-Fluoromethyl-2,5-diaminopentanoic acid (MFMO) was tested for in vitro inhibition of ornithine decarboxylase from Escherichia coli and from Pseudomonas aeruginosa according to the procedure described as follows:
(§2) Escherichia coli (M.R.C. 59) and Pseudomonas aeruginosa (A.T.C.C. 9027) were grown as described by Kallio et al., Biochem. J., 200, 69 (1981) in minimal medium [Davis et al., J. Bacteriol., 60, 17 (1950)] at 37° C. Cells were harvested by centrifugation (10 minutes at 10,000 g) and washed once with phosphate-buffered saline, pH 7.2 (0.125M NaCl, 10 mM Na2 HPO4, and 3 mM KH2 PO4). The cell pellet was suspended in 10 mM Tris/HCl (pH 7.5) containing 1 mM dithiothreitol and 0.1 mM EDTA and disrupted by sonication with a Branson Cell Disruptor 350 (5×30 sec, setting 3). Cell debris was removed by centrifugation at 25,000 g for 30 minutes and the supernatant (approximately 16 mg protein/ml), used for the measurement of ornithine decarboxylase, was stored frozen at -20° C. without appreciable loss of activity.
(§3) Ornithine decarboxylase activity was measured by the release of ^14 Co2. Assays contained 100 mM tris/HCl (pH 8.25 for E. coli and pH 7.5 for P. aeruginosa), 0.04 mM pyridoxal phosphate, 1mM dithiotheritol, 10 mM L-ornithine, 2.5 μCi D,L-[1-^14 C]ornithine and 80-120 μg bacterial protein in a total volume of 1 ml. […]
(§4) Time dependent irreversible inhibition of ornithine decarboxylase was determined according to the method of Kallio et al., Biochem. J., 200, 69 (1981). […] At selected times, 20 μl aliquots of the enzyme incubate were removed and transferred to the reaction flasks in which ODC activity was determined. […] The flasks were kept on ice until all time points were taken and then D,L-[1-^14 C]-ornithine was added and ODC activity was determined at 37° C. […]
(§5) Kinetic parameters for the inhibition of ODC were determined as described by Kitz, J. Biol. Chem., 237, 3245 (1962) as modified by Jung et al., Biochem. Biophys. […]

Another assay has as its target T2, P. aeruginosa ODC (Pseudomonas aeruginosa, UniProt Q9HVQ3).
T2 construct: 14CO2 release from ornithine
T2 sequence (Q9HVQ3 1-387): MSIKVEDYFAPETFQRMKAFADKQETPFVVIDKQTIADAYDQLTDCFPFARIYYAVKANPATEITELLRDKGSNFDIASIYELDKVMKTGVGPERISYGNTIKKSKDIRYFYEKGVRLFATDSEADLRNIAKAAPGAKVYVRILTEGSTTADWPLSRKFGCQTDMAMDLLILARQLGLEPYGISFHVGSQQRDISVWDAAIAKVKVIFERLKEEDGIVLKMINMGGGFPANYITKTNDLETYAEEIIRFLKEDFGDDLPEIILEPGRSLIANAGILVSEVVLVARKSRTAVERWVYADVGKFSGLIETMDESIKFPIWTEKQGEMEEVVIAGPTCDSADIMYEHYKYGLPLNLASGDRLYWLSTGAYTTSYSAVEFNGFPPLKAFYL
Briefly: time-dependent inhibition of bacterial ODC (in vitro), P. aeruginosa. Format: biochemical. How it is done:
as §1, §2, §3, §4, §5

T1 sequence (P21169 whole entry): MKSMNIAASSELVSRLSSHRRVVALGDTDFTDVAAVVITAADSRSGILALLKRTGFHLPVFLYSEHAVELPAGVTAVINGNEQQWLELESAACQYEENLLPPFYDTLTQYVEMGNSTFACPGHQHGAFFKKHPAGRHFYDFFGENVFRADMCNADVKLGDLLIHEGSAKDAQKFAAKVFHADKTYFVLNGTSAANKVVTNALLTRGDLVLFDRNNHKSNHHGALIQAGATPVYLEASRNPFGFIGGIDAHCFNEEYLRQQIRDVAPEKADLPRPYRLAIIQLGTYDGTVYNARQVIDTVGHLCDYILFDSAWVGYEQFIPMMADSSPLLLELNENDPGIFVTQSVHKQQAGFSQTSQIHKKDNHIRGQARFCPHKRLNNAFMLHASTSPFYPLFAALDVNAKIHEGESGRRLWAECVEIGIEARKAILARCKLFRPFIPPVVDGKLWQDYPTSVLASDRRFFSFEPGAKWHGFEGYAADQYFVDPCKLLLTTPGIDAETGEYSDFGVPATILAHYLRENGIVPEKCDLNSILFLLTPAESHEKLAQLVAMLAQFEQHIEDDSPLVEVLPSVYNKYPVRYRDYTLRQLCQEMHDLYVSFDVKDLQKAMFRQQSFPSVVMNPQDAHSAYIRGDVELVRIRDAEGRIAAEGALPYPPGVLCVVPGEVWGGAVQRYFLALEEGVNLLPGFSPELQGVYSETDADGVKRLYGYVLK

The inhibition is how much of the control response was suppressed. As to `NCCCC(N)(CF)C(=O)O` (centres unmarked) [MFMO, 2-Fluoromethyl-2,5-diaminopentanoic acid], on E. coli ODC [1] (bacteria grown in the presence of 2 mM of the compound), the inhibition at 2000 µM is 99%. On E. coli ODC [1] (intact cells, in words), the “inhibition of ODC of E. coli in intact cells” value was “inhibit”. Further, the Ki worked out at 360 µM on E. coli ODC [2] (E. coli ODC, concentration giving half-maximal rate of inhibition, 20° C., pH 8.25) and 300 µM on P. aeruginosa ODC (P. aeruginosa ODC, concentration giving half-maximal rate of inhibition, 20° C., pH 7.5). Moreover, the T1/2 is 12 min at E. coli ODC [2] (E. coli ODC, half-life at infinite concentrations) and 12 min at P. aeruginosa ODC (P. aeruginosa ODC, half-life at infinite concentrations). The “inhibition of ODC of E. coli in vitro” value against E. coli ODC [2] (in vitro, in words) is “inhibit”. Moreover, the “inhibition of ODC of P. aeruginosa in vitro” value against P. aeruginosa ODC (in vitro, in words) is recorded as “inhibit”.
